Values of other authors as cited in patent US20090226522A1, “PROCESS TO MINIMIZE POLYMORPHISM” (priority 2008, published 2009).
Read-outs that look alike come from different tables or passages of the source.

For `Cc1nnc2n1-c1ccc(Cl)cc1C(c1ccccc1)=NC2` [Alprazolam, 8-chloro-1-methyl-6-phenyl-4H-s-triazolo[4,3-α][1,4]benzodiazepine], the “solubility in methanol or ethanol” value (methanol or ethanol) is listed as “soluble”, the solubility in water (water) is listed as “poorly soluble” and the solubility in water (water at physiological pH) is listed as “no appreciable solubility”.
